Like-named read-outs stand apart in the source and are kept apart here.
How the values were obtained:
[1] = biological target: T1, VCB:KRAS ternary complex partners (Homo sapiens, UniProt P01116+P40337, P01116:C118S/P01116:G12D); test: biochemical; parameters: SPR binary and ternary complex binding affinity and kinetics; conditions: SPR; for kon: read-out: SPR VCB+KRAS^G12D kon [1/(M s)]
T1 construct: VCB (Avi-tagged, biotinylated for SPR) plus KRAS 1-169 C118S GDP; E. coli, His6 tags removed; with Elongin-C; Elongin-B
T1 sequence (Q15370 1-104): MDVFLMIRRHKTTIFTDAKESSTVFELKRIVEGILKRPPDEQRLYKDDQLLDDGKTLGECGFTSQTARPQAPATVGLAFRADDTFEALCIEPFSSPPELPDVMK
T1 sequence (P01116 1-169 G12D/C118S): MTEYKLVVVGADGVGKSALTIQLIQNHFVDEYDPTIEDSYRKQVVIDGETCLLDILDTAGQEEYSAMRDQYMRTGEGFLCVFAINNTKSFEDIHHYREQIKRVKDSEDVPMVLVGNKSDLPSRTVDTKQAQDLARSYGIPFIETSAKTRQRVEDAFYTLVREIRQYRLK
T1 sequence (Q15369 17-112, further chain): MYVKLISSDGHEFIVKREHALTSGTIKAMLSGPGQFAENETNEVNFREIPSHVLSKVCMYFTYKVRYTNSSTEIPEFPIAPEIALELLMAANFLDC
T1 sequence (P40337 54-213): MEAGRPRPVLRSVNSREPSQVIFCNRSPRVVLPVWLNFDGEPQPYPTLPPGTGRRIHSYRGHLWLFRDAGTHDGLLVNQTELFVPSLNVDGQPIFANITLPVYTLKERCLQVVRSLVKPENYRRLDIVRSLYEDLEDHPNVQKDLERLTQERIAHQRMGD
Text: With the objective of identifying molecules that potently degrade multiple KRAS mutants we next sought to employ structure-based design using the solved ternary co-crystal structure of compound 3 to improve ternary complex stability and intracellular VHL engagement. […] Analysis of the VCB:compound 3:KRAS^G12V co-crystal structure (Fig. 1H) highlighted an opportunity to enhance interactions within the ternary complex by improving π-stacking between the exit vector amide of the VHL ligand and Tyr112. We therefore switched the amide for an isoxazole, which has been previously reported to improve VCB affinity in this position in other contexts ([22]), yielding compound 4 (Fig. 2A). A ternary complex co-crystal structure of VCB:compound 4:KRAS^G12V (PDB 8QW7) confirmed a consistent overall binding mode to that observed for compound 3 (RMSD = 0.72 Å), with compound 4 able to engage in π-stacking interaction between the isoxazole and Tyr112 of VCB as designed (Fig. 2B). […] FP, SPR and cellular target engagement studies support a minor improvement in binary VHL engagement for compound 4, with moderate cooperativity retained (fig. S2A-C, table S1). […] We then investigated the impact of these structural changes on degradation kinetics in live HiBiT-tagged GP5d cells (fig. S3A-D). […] Aiming to measure ternary complex stability, we noted that the FP assay reached the limits of quantification due to ternary KD approaching that of the assay probe (fig. S8B).

KRAS wild type = biological target: T2, KRAS wild type (Homo sapiens, UniProt P01116); parameters: KRAS degradation by capillary electrophoresis (Wes) immunodetection; conditions: 6 h, degrader
T2 construct: endogenous in A375 / HEK293
T2 sequence (P01116 whole entry): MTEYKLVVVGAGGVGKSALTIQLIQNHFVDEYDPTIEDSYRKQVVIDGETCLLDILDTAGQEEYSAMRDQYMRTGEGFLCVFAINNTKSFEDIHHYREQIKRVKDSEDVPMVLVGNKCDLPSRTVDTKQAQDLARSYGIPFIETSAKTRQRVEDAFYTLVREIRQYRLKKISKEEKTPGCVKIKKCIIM

KRAS^WT = biological target: T3, KRAS^WT (Homo sapiens, UniProt P01116); parameters: KRAS degradation by capillary electrophoresis immunodetection; conditions: read-out: DC50 24 h A375
T3 construct: endogenous wild type
T3 sequence (P01116 whole entry): as above

NCI-H358 = test: cells; parameters: Inhibition of cell proliferation, 5 days; conditions: Homo sapiens, NCI-H358, 120 h; read-out: IC50 Proliferation NCI-H358
Text: Next, we set out to test the ability of a single pan-KRAS degrading molecule, compound 4, to selectively suppress oncogenic signaling and proliferation in cancer cell lines driven by diverse KRAS mutants. To this end, we first confirmed degradation of KRAS by compound 4 in KRAS-dependent (GP2d, SW620 and NCI-H358 expressing KRAS^G12D, - G12V or -G12C, respectively) as well as in KRAS independent (A-375, HEK293) cell lines (Fig. 3A, fig. S4A). […] Both inhibition and degradation repressed the established markers of MAPK signaling pERK (fig. S4B-D) and DUSP6 (Fig. 3B, fig. S4E) in KRAS dependent cell lines. […] Neither degradation nor inhibition had appreciable antiproliferative effects in the KRAS independent cell lines A-375 and HEK293 (Fig. 3C, fig. S4F). […] Pan-KRAS degradation impacts MAPK signaling and cancer cell proliferation.

GP2d = test: cells; parameters: pERK levels by capillary electrophoresis; conditions: GP2d, 6 h
KRAS^G12V = KRAS^G12V (Homo sapiens, UniProt P01116, G12V); parameters: endogenous in SW620; KRAS degradation by capillary electrophoresis (Wes) immunodetection; conditions: SW620; 6 h; degrader
Sequence of KRAS^G12V (P01116 whole entry G12V): as the sequence (P01116 whole entry) above, with G12V counted along it

KRAS^G12D = KRAS^G12D (Homo sapiens, UniProt P01116, G12D); parameters: endogenous or HiBiT-tagged in cells; KRAS degradation by capillary electrophoresis (Wes) immunodetection; conditions: GP2d; 6 h; degrader
Sequence of KRAS^G12D (P01116 whole entry G12D): as the sequence (P01116 whole entry) above, with G12D counted along it

Row | Kd [1] | kon [1] | DC50 (KRAS wild type; A375) | DC50 (KRAS wild type; HEK293) | DC50 (KRAS^WT) | IC50 (NCI-H358) | IC50 (GP2d) | DC50 (KRAS^G12V) | DC50 (KRAS^G12D) | Structure (SMILES)
1 | 30 ± 6 nM | 242000 M⁻¹ s⁻¹ | 751 nM | > 1000 nM | 455 nM | 983 nM | 772 nM | 159 nM | 53.4 nM | Cc1ncsc1-c1ccc(CNC(=O)[C@@H]2C[C@@H](O)CN2C(=O)[C@@H](NC(=O)CCCCCN2CCCN(c3nccc(-c4noc([C@@]5(C)CCCc6sc(N)c(C#N)c65)n4)n3)[C@@H](C)C2)C(C)(C)C)cc1 [compound 3]
2 |  |  | 36.7 nM | 12.8 nM | 33.4 nM | 85.4 nM | 3.1 nM | 24 nM | 7.3 nM | Cc1ncsc1-c1ccc(CNC(=O)[C@@H]2C[C@@H](O)CN2C(=O)[C@@H](c2cc(OCCCCN3CCCN(c4nccc(-c5noc([C@@]6(C)CCCc7sc(N)c(C#N)c76)n5)n4)[C@@H](C)C3)no2)C(C)C)cc1 [compound 4]
3 |  | 224000 M⁻¹ s⁻¹ |  |  |  |  |  |  |  | Cc1ncsc1-c1ccc(CNC(=O)[C@@H]2C[C@@H](O)CN2C(=O)[C@@H](NC(=O)COCCCN2CCCN(c3nccc(-c4noc([C@@]5(C)CCCc6sc(N)c(C#N)c65)n4)n3)[C@@H](C)C2)C(C)(C)C)cc1 [compound 2]

From doi:10.1101/2023.10.24.563163v2, “Targeting cancer with small molecule pan-KRAS degraders” (biorxiv, 2024)
